Data from patent EP1348714B1, “Polypeptide useful as anti-allergic/antiasthmatic, methods for the preparation thereof and pharmaceutical compositions containing such polypeptide and their use” (COUNCIL OF SCIENTIFIC AND INDUSTRIAL RESEARCH, priority 2002, dated 2003).
Square brackets hold non-standard residues; d marks the D form. Peptide text beside a SMILES is read from it. Sar = CNCC(=O)O

Assays:
[1] = other pharmacological studies (cardiovascular, CNS, anti-inflammatory, diuretic); assay type: in vivo; details: up to a dose of 10 mg/kg
[2] = tested on: passive cutaneous anaphylaxis (PCA); assay: passive cutaneous anaphylaxis (PCA) test in rats; assay type: in vivo
Egg-albumin = assay: aerosol test, egg-albumin challenge in sensitised guinea pigs; assay type: in vivo; details: dose 50 mg/kg (ip)
[3] = tested on: sensitised guinea pig ileum; assay: antigen (egg albumin) induced contraction of sensitised guinea pig ileum (Schultz-Dale phenomenon)
[4] = tested on: Normal mast cells (Noninnunological: Comp. 48/80); assay: mast cell degranulation by comp 48/80 in normal mast cells; assay type: in vivo, rats; details: dose 50.0 pro (10.0 x 5 d) mg/kg x days
[5] = tested on: Sensitised mast cells (Immunological: Egg albumin); assay: mast cell degranulation by egg albumin in sensitised mast cells; assay type: in vivo, rats; details: dose 50.0 pro (10.0 x 5 d) mg/kg x days

## C[C@H](N)C(=O)NCC(=O)NCC(=O)N[C@@H](CC(=O)O)C(=O)N(C)CC(=O)N[C@@H](CCCCN)C(=O)O [96/199, L-alanyl-glycyl-glycyl-L-aspartyl-sar-L-1ys] (H-AGGD[Sar]K-OH)
[1]
  cardiovascular, Central Nervous System (CNS), anti-inflammatory, diuretic activities: No significant effects

## O=C([O-])c1cc(=O)c2c(OCC(O)COc3cccc4oc(C(=O)[O-])cc(=O)c34)cccc2o1.[Na+].[Na+] [DSCG, disodium cromoglycate]
[2]; rat, 50 mg/kg by nasal route
  anti PCA activity: 81%
[2]; rats, dose 50.0 mg/kg (IP)
  % Anti-PCA activity: 77%
Egg-albumin
  % Protection Egg-albumin: 64%
[3]; concentration 1.0 (unit not given)
  % Protection to ileum contraction induced by egg albumin: No block
[3]; concentration 2.0 (unit not given)
  % Protection to ileum contraction induced by egg albumin: 18%
[3]; concentration 3.0 (unit not given)
  % Protection to ileum contraction induced by egg albumin: 59%
[4]
  % Protection: 72%
[5]
  % Protection: 71%
